Series [1] has as its system striped bass fingerlings. The conditions noted are these: comparable salinities, higher alkalinities (Reardon and Harrell, 1990); cited from earlier work.
The test system of series [2] is Karlodinium micrum (CCMP 1974). Kind of series: Dinoflagellate lysis due to copper sulfate and potassium permanganate (K. micrum). It is filed as cell-based. The conditions noted are these: exposures ≧2 mg L^−1 and only after 2 hours.
For series [3], the system named is sheepshead minnow (Cyprinodon variegatus) larvae. The series is described as follows: Static acute larval fish ichthyotoxicity bioassay (sheepshead minnow). It is filed as in vivo. As to conditions: algicide alone (control larvae without K. micrum). How it is done: Ichthyotoxicity was evaluated using a static, acute (24-48 hour), small volume (2 ml), larval fish bioassay. Exposures were performed at 20° C. in 24-well non-tissue culture treated polystyrene plates (Becton Dickinson Labware, Franklin Lakes N.J.). Two species were utilized for ichthyotoxicity testing, zebrafish (Danio rerio) and sheepshead minnows (Cyprinodon variegatus), depending on their availability and salinity tolerance, with sheepshead minnows being tolerant to a wider range of salinities, but zebrafish being more readily obtainable in large numbers. Therefore, zebrafish, 5-<48 hrs old post-hatch, were used for toxic fraction testing, while sheepshead minnows, 3-<24 hours old post-hatch, were used to test whole dinoflagellate cultures. Larvae were not fed prior to or during testing. Previous experiments had shown that, at the biomass/water ratios used for each species, oxygen saturation remained >60% during the 48 hour exposure, as recommended in the Standard Guide for Conducting Acute Toxicity Tests with Fishes, Macroinvertebrates, and Amphibians (ASTM, 1992). All treatments were run in triplicate.
This experiment was run in triplicate. For these experiments, 12 psu ASW (Instant Ocean Brand) with added f/2-Si nutrient mixture (Guillard, 1975) and 1.5% soil extract and 0.3% chicken manure extract (alkalinity 75 mg L^−1 CaCO3) was used as the diluent. […]

Series [4] concerns rainbow trout erythrocytes. The conditions noted are these: mixed with equal volume of 5% erythrocyte suspension. How it is done:
The filtrate from water samples collected on Feb. […] Environmental water samples were allowed to thaw to room temperature and passed through a Sep-Pak Plus tC18 disposable cartridge (Waters Corp., Milford Mass.), attached to a vacuum manifold. The column was pre-equilibrated with methanol (20 ml) followed by H2O (20 ml). The cartridges were eluted with the following concentrations of MeOH/H2O: 100% H2O, 40%, 60%, 80%, and 100% MeOH (12 ml ea^−1). An aliquot of each elution was diluted, using Tris buffer +CaCl2, to give final dilutions ranging from 6 to 60% of original concentrations. […] The occurrence of hemolytic activity was determined by the absorbance of released hemoglobin, measured at 540 nm. Saponin (10 μg) served as a positive hemolysin control. Treatments were run in quadruplicate.
A hemolytic assay based on the lysis of fish erythrocytes was utilized to screen for bioactive materials. Cultures and culture fractions that were positive in the hemolytic assay were tested further using assays for ichthyotoxicity and cytotoxicity.
Blood was extracted from the caudal vein of rainbow trout (Oncorhynchus mykis) provided by the Center of Marine Biotechnology's Aquaculture Research Center. Needles were heparin (Sigma Chemical Co., St. Louis Mo.) treated and 10 units ml^−1 of additional heparin was added to whole blood samples to prevent clotting. […] Buffer pH was adjusted to 7.4 at 10° C. with 1N HCl, then filter sterilized (0.22 μm). […] Suspensions were stored at 4° C. for no longer than 10 days.
Hemolytic assays were performed by diluting test material in Tris buffer +CaCl2 (100 μl total) and adding this to a 5% erythrocyte suspension (100 μl). […] Assays were incubated on an orbital shaker (80-100 rpm) at 20° C. for 1 hour. Plates were then centrifuged at 2500 g for 5 min. and the supernatant (100 μl) was transferred to another flat bottom 96 well polystyrene plate, where the absorbance of released hemoglobin was read at 540 nm. Saponin (10 μg) (from Quillaja bark; Sigma Chemical Co., St. Louis Mo.) was used as a positive hemolysin control All treatments were run in quadruplicate.
LC50values and ranges were determined by Probit analysis (SPSS Base 10.0, SPSS Inc., Chicago Ill.).
Blood was extracted from the caudal vein of rainbow trout (Oncorhynchus mykis). […] Buffer pH was adjusted to 7.4 at 10° C. with 1N HCl, then filter sterilized (0.22 um). […] Blood suspensions were stored at 4° C. for no longer than 10 days.
Hemolysis assays were performed by diluting test material in Tris buFFer +CaCl2 (100 ul) and adding this to 100 ul of a 5% erythrocyte suspension for a total assay volume of 200 ul. […] Plates were incubated on an orbital shaker (80-100 rpm) at 20° C. for 1 hour. Plates were then centrifuged at 2000 g for 5 min. and the supernatant (100 ul) was transferred to a new flat bottom 96 well polystyrene plate, where the absorbance of released hemoglobin was read at 540 nm. Saponin (from Quillaja bark; Sigma Chemical Co., St. Louis Mo.) was used as a positive hemolysin control. Percent hemolysis (0-100%) was calculated from comparison to un-treated controls and samples treated with 10 ug saponin. All treatments were run in quadruplicate.
Hemolytic LC50 values were calculated from a dilution series of KmTx 2 and amphotericin B. LC50 values and ranges were determined by Probit analysis using a SPSS Base 10.0 statistical software package (SPSS Inc., Chicago, Ill.).

Read-outs that look alike come from different tables or passages of the source. Marks after values point to notes of the source that are not given here.

Turning to `O.O.O.O.O.O=S(=O)([O-])[O-].[Cu+2]` [CuSO4, CuSO4·5 H2O], the “96h LC50” value in series [1] was “ca. 8 mg L^−1”. Further, the Cell lysis result in series [2] is on record as “occurred in K. micrum”. For the same compound, the “mortality or epithelial damage of sheepshead minnow larvae” value in series [3] was “No mortality or epithelial damage”. In addition, the “presence of hemolytic activity of copper solution” value in series [4] (copper 5 mg L^−1 without EDTA) was 4.957*; in series [4] (copper 20 mg L^−1 without EDTA), 21.110*.

(Values after patent publication US20050209104A1, “Dinoflagellate karlotoxins, methods of isolation and uses thereof” (priority 2002, published 2005).)
